The record followed here is patent US8513232B2, “Substituted spirocyclic piperidine derivatives as histamine-3 (H3) receptor ligands” (Cephalon, Inc., priority 2008, dated 2013).

Where only a bound is given, the exact number is not on record here.

For test [1], the target named is T1, rat histamine H3 receptor (Rattus norvegicus, UniProt Q9QYN8).
T1 construct: encoding the entire 445-amino-acid rat histamine H3 receptor; expressed in transfected cells; membrane preparation
The test can be described thus: Rat H3 radioligand binding ([3H]-N-alpha-methylhistamine, SPA). The note with it: Table A; rat H3 binding; read-out: Rat Ki. An excerpt: Cell line development and membrane preparation. The rat H3 receptor cDNA was PCR amplified from reverse-transcribed RNA pooled from rat thalamus, hypothalamus, striatum and prefrontal cortex with a sequence corresponding to by #338-1672 of Genbank file #NM_053506, encoding the entire 445-amino-acid rat histamine H3 receptor. This was engineered into the pIRES-neo3 mammalian expression vector, which was stably transfected into the CHO-A3 cell line (Euroscreen, Belgium), followed by clonal selection by limiting dilution. Cells were harvested and cell pellets were frozen (−80° C.). Cell pellets were resuspended in 5 mM Tris-HCl, pH 7.5 with […] and a cocktail of protease inhibitors (Complete Protease Inhibitior Tablets, Roche Diagnostics). Cells were disrupted using a polytron cell homogenizer and the suspension was centrifuged at 1000×g for 10 minutes at 4° C. The pellet was discarded and the supernatant centrifuged at 40,000×g for 30 min at 4° C. This membrane pellet was washed in membrane buffer containing 50 mM Tris-HCl, pH 7.5 with 0.6 mM EDTA, 5 mM MgCl2 and protease inhibitors, recentrifuged as above and the final pellet resuspended in membrane buffer plus 250 mM sucrose and frozen at −80° C.
(§1) Radioligand Binding. Membranes were resuspended in 50 mM Tris HCl (pH 7.4), 5 mM MgCl2, 0.1% BSA. The membrane suspensions (10 μg protein per well) were incubated in a 96 well microtiter plate with [^3H]-N-alpha-methylhistamine (approximately 1 nM final concentration), test compounds at various concentrations (0.01 nM-30 μM) and scintillation proximity beads (Perkin Elmer, FlashBlueGPCR Scintillating Beads) in a final volume of 80 μl for 4 hours at room temperature, protected from light. Non-specific binding was determined in the presence of 10 μM clobenpropit. Radioligand bound to receptor, and therefore in proximity to the scintillation beads, was measured using a MicroBeta scintillation counter.

For test [2], the target named is T2, human H3 receptor (Homo sapiens, UniProt Q9Y5N1).
T2 construct: expressed in transfected cells
T2 sequence (Q9Y5N1 whole entry): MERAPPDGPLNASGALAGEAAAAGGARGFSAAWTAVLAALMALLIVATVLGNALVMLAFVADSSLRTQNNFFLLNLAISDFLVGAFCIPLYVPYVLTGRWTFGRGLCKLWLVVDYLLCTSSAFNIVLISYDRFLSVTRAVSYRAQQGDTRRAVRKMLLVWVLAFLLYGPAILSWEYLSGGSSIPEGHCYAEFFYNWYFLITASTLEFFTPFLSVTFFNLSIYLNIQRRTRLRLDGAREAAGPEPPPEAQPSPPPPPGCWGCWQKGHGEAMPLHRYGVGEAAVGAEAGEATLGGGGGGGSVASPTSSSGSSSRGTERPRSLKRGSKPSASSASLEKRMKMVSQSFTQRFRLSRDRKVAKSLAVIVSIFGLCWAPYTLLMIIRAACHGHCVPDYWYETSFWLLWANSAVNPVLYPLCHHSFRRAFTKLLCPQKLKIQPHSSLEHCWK
The test can be described thus: Human H3 radioligand binding ([3H]-N-alpha-methylhistamine, SPA). The note with it: Table A; human H3 binding; read-out: Human Ki. The protocol:
Methods: CHO cells stably expressing the human H3 receptor (GenBank: NM_007232) were harvested and cell pellets were frozen (−80° C.). Cell pellets were resuspended in 5 mM Tris-HCl, pH 7.5 with […] and a cocktail of protease inhibitors (Complete Protease Inhibitior Tablets, Roche Diagnostics). Cells were disrupted using a polytron cell homogenizer and the suspension was centrifuged at 1000×g for 10 minutes at 4° C. The pellet was discarded and the supernatant centrifuged at 40,000×g for 30 min at 4° C. This membrane pellet was washed in membrane buffer containing 50 mM Tris-HCl, pH 7.5 with 0.6 mM EDTA, 5 mM MgCl2 and protease inhibitors, recentrifuged as above and the final pellet resuspended in membrane buffer plus 250 mM sucrose and frozen at −80° C.
as §1

T1 sequence (Q9QYN8 whole entry): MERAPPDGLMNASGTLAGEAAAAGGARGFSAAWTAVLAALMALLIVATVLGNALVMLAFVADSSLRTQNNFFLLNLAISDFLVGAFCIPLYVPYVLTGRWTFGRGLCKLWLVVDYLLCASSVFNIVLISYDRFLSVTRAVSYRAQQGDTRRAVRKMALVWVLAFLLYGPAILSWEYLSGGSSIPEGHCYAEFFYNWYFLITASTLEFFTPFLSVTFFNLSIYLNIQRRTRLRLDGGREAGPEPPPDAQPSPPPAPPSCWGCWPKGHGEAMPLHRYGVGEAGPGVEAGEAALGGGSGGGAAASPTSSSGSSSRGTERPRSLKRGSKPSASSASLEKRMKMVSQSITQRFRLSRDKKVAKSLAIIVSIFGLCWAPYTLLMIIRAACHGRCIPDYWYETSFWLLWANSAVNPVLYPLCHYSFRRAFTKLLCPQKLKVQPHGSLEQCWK

With `Fc1ccc(-c2ccc3c(c2)COC2(CCN(C4CCC4)CC2)O3)cn1` [Example 1], the Ki in test [1] and in test [2] was less than 200 nM each time.
With `c1cc2c(cc1-c1ccc3c(c1)COC1(CCN(C4CCC4)CC1)O3)CCO2` [Example 2], the Ki in test [1] and in test [2] was less than 200 nM throughout.
Take `N#Cc1ccc(-c2ccc3c(c2)COC2(CCN(C4CCC4)CC2)O3)cc1` [Example 3]: the Ki in test [1] and in test [2] was less than 200 nM in each case.
Turning to `c1ccc2oc(-c3ccc4c(c3)COC3(CCN(C5CCC5)CC3)O4)cc2c1` [Example 6], the inhibition constant Ki in test [2] fell in the range of 200 to 1000 nM.
For the compound `c1cncc(-c2ccc3c(c2)COC2(CCN(C4CCC4)CC2)O3)c1` [Example 7], the Ki in test [1] and in test [2] was less than 200 nM each time.
For `O=C(c1ccc(-c2ccc3c(c2)COC2(CCN(C4CCC4)CC2)O3)cc1)N1CCCC1` [Example 8], the Ki in test [1] and in test [2] was less than 200 nM in each case.
Consider `O=C(c1ccc(-c2ccc3c(c2)COC2(CCN(C4CCC4)CC2)O3)cc1)N1CCOCC1` [Example 9], for which the Ki in test [1] and in test [2] was less than 200 nM each time.
`c1cc(-c2ccc3c(c2)COC2(CCN(C4CCC4)CC2)O3)ccn1` [Example 10]: the inhibition constant (Ki) in test [1] and in test [2] was less than 200 nM in each case.
Turning to `CCOc1ccc(-c2ccc3c(c2)COC2(CCN(C4CCC4)CC2)O3)cn1` [Example 11], the inhibition constant (Ki) in test [1] and in test [2] was less than 200 nM throughout.
Consider `c1csc(-c2ccc3c(c2)COC2(CCN(C4CCC4)CC2)O3)c1` [Example 12], for which the Ki in test [1] and in test [2] was less than 200 nM throughout.
For the compound `c1cc(-c2ccc3c(c2)COC2(CCN(C4CCC4)CC2)O3)cs1` [Example 13], the Ki in test [1] and in test [2] was less than 200 nM each time.
For `O=C(NC1CC1)c1ccc(-c2ccc3c(c2)COC2(CCN(C4CCC4)CC2)O3)cc1` [Example 14], the Ki in test [1] and in test [2] was less than 200 nM each time.
For the compound `O=S(=O)(c1ccc(-c2ccc3c(c2)COC2(CCN(C4CCC4)CC2)O3)cc1)N1CCCC1` [Example 16], the inhibition constant Ki in test [1] and in test [2] was less than 200 nM in each case.
With `O=S(=O)(c1ccc(-c2ccc3c(c2)COC2(CCN(C4CCC4)CC2)O3)cc1)N1CCOCC1` [Example 17], the Ki in test [1] and in test [2] was less than 200 nM each time.
Regarding `NC(=O)c1ccc(-c2ccc3c(c2)COC2(CCN(C4CCC4)CC2)O3)cc1` [Example 18], the Ki in test [1] and in test [2] was less than 200 nM in each case.
Turning to `CCS(=O)(=O)c1ccc(-c2ccc3c(c2)COC2(CCN(C4CCC4)CC2)O3)cc1` [Example 20], the Ki in test [1] and in test [2] was less than 200 nM in each case.
With `CS(=O)(=O)c1ccc(-c2ccc3c(c2)COC2(CCN(C4CCC4)CC2)O3)cc1` [Example 21], the Ki in test [1] and in test [2] was less than 200 nM in each case.
Consider `COc1ncc(-c2ccc3c(c2)COC2(CCN(C4CCC4)CC2)O3)cn1` [Example 23], for which the inhibition constant (Ki) in test [1] and in test [2] was less than 200 nM each time.
On to `O=S(=O)(c1ccc(-c2ccc3c(c2)COC2(CCN(C4CCC4)CC2)O3)cc1)N1CCC1` [Example 24], for which the Ki in test [1] and in test [2] was less than 200 nM in each case.
For the compound `O=S(=O)(NC1CC1)c1ccc(-c2ccc3c(c2)COC2(CCN(C4CCC4)CC2)O3)cc1` [Example 25], the inhibition constant Ki in test [1] and in test [2] was less than 200 nM in each case.
As for `CN(C)S(=O)(=O)c1ccc(-c2ccc3c(c2)COC2(CCN(C4CCC4)CC2)O3)cc1` [Example 32], the Ki in test [1] and in test [2] was less than 200 nM each time.
For `NC(=O)Cc1ccc(-c2ccc3c(c2)COC2(CCN(C4CCC4)CC2)O3)cc1` [Example 49], the Ki in test [1] and in test [2] was less than 200 nM in each case.
Consider `Nc1cccc(-c2ccc3c(c2)COC2(CCN(C4CCC4)CC2)O3)c1` [Example 51], for which the Ki in test [1] and in test [2] was less than 200 nM in each case.
Regarding `NC(=O)Nc1cccc(-c2ccc3c(c2)COC2(CCN(C4CCC4)CC2)O3)c1` [Example 52], the Ki in test [1] and in test [2] was less than 200 nM in each case.
For `O=C(c1cccc(-c2ccc3c(c2)COC2(CCN(C4CCC4)CC2)O3)c1)N1CCCCC1` [Example 53], the inhibition constant (Ki) in test [1] and in test [2] was less than 200 nM throughout.
On to `O=C(NC1CC1)c1cccc(-c2ccc3c(c2)COC2(CCN(C4CCC4)CC2)O3)c1` [Example 55], for which the Ki in test [1] and in test [2] was less than 200 nM each time.
Turning to `O=C(c1cccc(-c2ccc3c(c2)COC2(CCN(C4CCC4)CC2)O3)c1)N1CCOCC1` [Example 56], the inhibition constant Ki in test [1] and in test [2] was less than 200 nM throughout.
`Nc1cccc(-c2ccc3c(c2)COC2(CCN(C4CCCC4)CC2)O3)c1` [Example 61]: the Ki in test [2] was less than 200 nM.
For the compound `O=C(Nc1cccc(-c2ccc3c(c2)COC2(CCN(C4CCCC4)CC2)O3)c1)c1ccccc1` [Example 62], in test [2], the Ki is less than 200 nM.
For the compound `CC(C)N1CCC2(CC1)OCc1cc(-c3cccc(N)c3)ccc1O2` [Example 63], the Ki in test [2] is less than 200 nM.
Same read-out and setting: as for `CC(C)N1CCC2(CC1)OCc1cc(-c3ccc4c(c3)CCO4)ccc1O2` [Example 64], the figure is less than 200 nM.
As for `O=S(=O)(c1ccc(-c2ccc3c(c2)COC2(CCN(C4CCC4)CC2)O3)c(F)c1)N1CCOCC1` [Example 65], the inhibition constant (Ki) in test [1] and in test [2] was less than 200 nM each time.
Regarding `Cc1nc(C)c(-c2ccc3c(c2)COC2(CCN(C4CCC4)CC2)O3)s1` [Example 70], the Ki in test [1] and in test [2] was less than 200 nM throughout.
As to `N#Cc1ccccc1-c1ccc2c(c1)COC1(CCN(C3CCC3)CC1)O2` [Example 73], the Ki in test [1] and in test [2] was less than 200 nM in each case.
On to `N#Cc1ncc(-c2ccc3c(c2)COC2(CCN(C4CCC4)CC2)O3)s1` [Example 75], for which the inhibitory constant (Ki) in test [1] and in test [2] was less than 200 nM in each case.
In the case of `N#Cc1ccc(-c2ccc3c(c2)OC2(CCN(C4CCC4)CC2)O3)cc1` [Example 88], the Ki in test [1] is less than 200 nM; in test [2], 200 to 1000 nM.
Take `O=C(c1ccc(-c2ccc3c(c2)OC2(CCN(C4CCC4)CC2)O3)cc1)N1CCOCC1` [Example 89]: the inhibition constant Ki in test [1] and in test [2] was less than 200 nM in each case.
For `O=C(c1cccc(-c2ccc3c(c2)OC2(CCN(C4CCC4)CC2)O3)c1)N1CCOCC1` [Example 91], the Ki in test [1] and in test [2] was less than 200 nM each time.
Consider `N#Cc1cccc(-c2ccc3c(c2)OC2(CCN(C4CCC4)CC2)O3)c1` [Example 92], for which the values for the inhibitory constant (Ki) in test [1] and in test [2] were greater than 1000 nM and 200 to 1000 nM, respectively.
In the same order, the values of `O=C(c1cccc(-c2ccc3c(c2)OC2(CCN(C4CCC4)CC2)OC3)c1)N1CCCC1` [Example 94] are 200 to 1000 nM and 200 to 1000 nM.
Turning to `O=C(c1ccc(-c2ccc3c(c2)CCC2(CCN(C4CCC4)CC2)O3)cc1)N1CCOCC1` [Example 99], the inhibition constant (Ki) in test [1] and in test [2] was less than 200 nM throughout.
Turning to `CCOc1ccc(-c2ccc3c(c2)CCC2(CCN(C4CCC4)CC2)O3)cn1` [Example 100], the inhibition constant (Ki) in test [1] and in test [2] was less than 200 nM in each case.
For `CS(=O)(=O)c1ccc(-c2ccc3c(c2)CCC2(CCN(C4CCC4)CC2)O3)cc1` [Example 101], the inhibition constant Ki in test [1] and in test [2] was less than 200 nM each time.
With `c1ccc(-c2ccc3c(c2)CCC2(CCN(C4CCC4)CC2)O3)cc1` [Example 102], the Ki in test [1] and in test [2] was less than 200 nM throughout.
Take `O=S(=O)(c1ccc(-c2ccc3c(c2)CCC2(CCN(C4CCC4)CC2)O3)cc1)N1CCCC1` [Example 103]: the Ki in test [1] and in test [2] was less than 200 nM throughout.
As to `COc1ncc(-c2ccc3c(c2)CCC2(CCN(C4CCC4)CC2)O3)cn1` [Example 104], the Ki in test [1] and in test [2] was less than 200 nM in each case.
On to `FC(F)(F)Oc1ccc(-c2ccc3c(c2)CCC2(CCN(C4CCC4)CC2)O3)cc1` [Example 105], for which the figures for the Ki in test [1] and in test [2] were 200 to 1000 nM and less than 200 nM, respectively.
The corresponding values for `CNC(=O)c1ccc(-c2ccc3c(c2)CCC2(CCN(C4CCC4)CC2)O3)cc1` [Example 106] are less than 200 nM and less than 200 nM.
`c1ncc(-c2ccc3c(c2)CCC2(CCN(C4CCC4)CC2)O3)cn1` [Example 107]: the Ki in test [1] and in test [2] was less than 200 nM each time.

Usually Ki stands for the equilibrium dissociation constant of an inhibitor or competing ligand from its target.
